Here are results for 1 compound from US20080261898A1, “COMPOSITION AND METHOD FOR CANCER TREATMENT AND PREVENTION” (priority 2007, published 2008).

The assay concerns p21. As to the kind of experiment: p21 expression in xenograft tumor samples, immunoblotting. In kind it is in vivo, mouse. The procedure:
8-12 week old athymic nude mice (Jackson Laboratories, Bar Harbor, Me., US) were randomly assigned to Control (n=10) and Treatment (n=10) groups. Tumor xenografts were generated by injecting DU-145 cells (4×10^6) subcutaneously into the mice (Day 1). 1 mg/kg body weight of AC620 or PBS (Control) was administrated to the mice by subcutaneous injection starting at the time of tumor implantation (Day 1) and the mice were treated twice a week. Tumors were measured periodically. At Day 30, the mice were sacrificed. Half of each tumor was processed for immunohistochemical analysis and the other half was frozen for subsequent protein and RNA analysis.
Xenograft mouse model was generated and AC620 or PBS (Control) was administrated to the transplanted mice for 30 days as described above. After the mice were sacrificed, immunoblotting analysis of the tumor samples was performed using Bcl-2 and p21 antibodies as described above.
(In general: Immunoblotting shows a protein as a band on a membrane.)

In the case of `CC1OC(OCC2OC(Oc3c(-c4ccc(O)c(O)c4)oc4cc(O)c(O)cc4c3=O)C(O)C(O)C2O)C(O)C(O)C1O` (stereo not shown) [AC620], the “p21 expression reduced in tumor samples” value (Treatment 1) is 0%, the “p21 expression reduced in tumor samples” value (Treatment 2) is on record as 70%, the “p21 expression reduced in tumor samples” value (Treatment 3) stood at 60% and the “p21 expression reduced in tumor samples” value (Treatment 4) worked out at 90%.
